ChEMBL document CHEMBL4052645, “Discovery of potent and efficacious pyrrolopyridazines as dual JAK1/3 inhibitors” (Bioorg Med Chem Lett, 2017)

Assays:
[1] = target: Mitogen-activated protein kinase 1 (Homo sapiens) (UniProt P28482); test: Inhibition of wild-type human full length ERK2 (M1 to S360 residues) expressed in bacterial expression system assessed as residual activity at 50 nM by Kinomescan method relative to control
[2] = target: Insulin receptor-related protein (Homo sapiens) (UniProt P14616); test: Inhibition of wild-type human partial length IRR (R950 to E1278 residues) expressed in bacterial expression system assessed as residual activity at 50 nM by Kinomescan method relative to control
[3] = target: Ephrin type-A receptor 8 (Homo sapiens) (UniProt P29322); test: Inhibition of wild-type human partial length EPHA8 (Q608 to C920 residues) expressed in bacterial expression system assessed as residual activity at 50 nM by Kinomescan method relative to control
[4] = target: Activin receptor type-1B (Homo sapiens) (UniProt P36896); test: Inhibition of wild-type human ALK4 (S187 to I505 residues) expressed in bacterial expression system assessed as residual activity at 50 nM by Kinomescan method relative to control
[5] = target: MAP/microtubule affinity-regulating kinase 3 (Homo sapiens) (UniProt P27448); test: Inhibition of wild-type human full length MARK3 (M1 to L729 residues) expressed in bacterial expression system assessed as residual activity at 50 nM by Kinomescan method relative to control
[6] = target: Cyclin-dependent kinase-like 1 (Homo sapiens) (UniProt Q00532); test: Inhibition of wild-type human full length CDKL1 (M1 to I358 residues) expressed in mammalian expression system assessed as residual activity at 50 nM by Kinomescan method relative to control
[7] = target: Serine/threonine-protein kinase N1 (Homo sapiens) (UniProt Q16512); test: Inhibition of human PKN1 (E598 to C948 residues) expressed in bacterial expression system assessed as residual activity at 50 nM by KINOMEscan assay relative to control
[8] = target: Angiopoietin-1 receptor (Homo sapiens) (UniProt Q02763); test: Inhibition of wild-type human partial length TIE2 (N804 to T1112 residues) expressed in bacterial expression system assessed as residual activity at 50 nM by Kinomescan method relative to control
[9] = target: Calcium/calmodulin-dependent protein kinase kinase 2 (Homo sapiens) (UniProt Q96RR4); test: Inhibition of wild-type human partial length CAMKK2 (D65 to V471 residues) expressed in bacterial expression system assessed as residual activity at 50 nM by Kinomescan method relative to control
[10] = target: Peripheral plasma membrane protein CASK (Homo sapiens) (UniProt O14936); test: Inhibition of wild-type human partial length CASK (M1 to H315 residues) expressed in mammalian expression system assessed as residual activity at 50 nM by Kinomescan method relative to control
[11] = target: Leucine-rich repeat serine/threonine-protein kinase 2 (Homo sapiens) (UniProt Q5S007); test: Inhibition of wild-type human partial length LRRK2 (H970 to E2527 residues) expressed in mammalian expression system assessed as residual activity at 50 nM by Kinomescan method relative to control
[12] = target: Serine/threonine-protein kinase pim-1 (Homo sapiens) (UniProt P11309); test: Inhibition of wild-type human partial length PIM1 (A15 to K313 residues) expressed in bacterial expression system assessed as residual activity at 50 nM by Kinomescan method relative to control
[13] = target: Cyclin-dependent kinase 11B (Homo sapiens) (UniProt P21127); test: Inhibition of wild-type human partial length CDK11 (M1 to N360 residues) expressed in bacterial expression system assessed as residual activity at 50 nM by Kinomescan method relative to control
[14] = target: Death-associated protein kinase 3 (Homo sapiens) (UniProt O43293); test: Inhibition of wild-type human partial length DAPK3 (M1 to A277 residues) expressed in bacterial expression system assessed as residual activity at 50 nM by Kinomescan method relative to control
[15] = target: Leukocyte tyrosine kinase receptor (Homo sapiens) (UniProt P29376); test: Inhibition of wild-type human partial length LTK (P422 to S744 residues) expressed in bacterial expression system assessed as residual activity at 50 nM by Kinomescan method relative to control
[16] = target: Serine/threonine-protein kinase 17A (Homo sapiens) (UniProt Q9UEE5); test: Inhibition of wild-type human partial length DRAK1 (R32 to E363 residues) expressed in bacterial expression system assessed as residual activity at 50 nM by Kinomescan method relative to control
[17] = target: Maternal embryonic leucine zipper kinase (Homo sapiens) (UniProt Q14680); test: Inhibition of wild-type human full length MELK (M1 to V651 residues) expressed in bacterial expression system assessed as residual activity at 50 nM by Kinomescan method relative to control
[18] = target: Serine/threonine-protein kinase TNNI3K (Homo sapiens) (UniProt Q59H18); test: Inhibition of wild-type human HH498 (M1 to S835 residues) expressed in bacterial expression system assessed as residual activity at 50 nM by Kinomescan method relative to control
[19] = target: Cyclin-dependent kinase 14 (Homo sapiens) (UniProt O94921); test: Inhibition of wild-type human full length PFTAIRE1 (M1 to H451 residues) expressed in bacterial expression system assessed as residual activity at 50 nM by Kinomescan method relative to control
[20] = target: Cyclin-dependent kinase 17 (Homo sapiens) (UniProt Q00537); test: Inhibition of recombinant human full length PCTAIRE2 (M1 to F523 residues) assessed as residual activity at 50 nM by Kinomescan method relative to control
[21] = target: RAF proto-oncogene serine/threonine-protein kinase (Homo sapiens) (UniProt P04049); test: Inhibition of wild-type human partial length RAF1 (I330 to T640 residues) expressed in bacterial expression system assessed as residual activity at 50 nM by Kinomescan method relative to control
[22] = target: Mitogen-activated protein kinase kinase kinase 10 (Homo sapiens) (UniProt Q02779); test: Inhibition of wild-type human partial length MLK2 (V52 to W380 residues) expressed in bacterial expression system assessed as residual activity at 50 nM by Kinomescan method relative to control
[23] = target: Serine/threonine-protein kinase 3 (Homo sapiens) (UniProt Q13188); test: Inhibition of human MST2 (D17 to E318 residues) expressed in bacterial expression system assessed as residual activity at 50 nM by KINOMEscan assay relative to control
[24] = target: Dual specificity testis-specific protein kinase 1 (Homo sapiens) (UniProt Q15569); test: Inhibition of wild-type human full length TESK1 (R37 to S626 residues) expressed in bacterial expression system assessed as residual activity at 50 nM by Kinomescan method relative to control
[25] = target: Homeodomain-interacting protein kinase 3 (Homo sapiens) (UniProt Q9H422); test: Inhibition of wild-type human partial length HIPK3 (M153 to N562 residues) expressed in mammalian expression system assessed as residual activity at 50 nM by Kinomescan method relative to control

SMILES | Activity [1] | Activity [2] | Activity [3] | Activity [4] | Activity [5] | Activity [6] | Activity [7] | Activity [8] | Activity [9] | Activity [10] | Activity [11] | Activity [12] | Activity [13] | Activity [14] | Activity [15] | Activity [16] | Activity [17] | Activity [18] | Activity [19] | Activity [20] | further results
COc1ccc(-c2cc3c(N[C@@H]4CC[C@](C)(N)C4(C)C)c(C(N)=O)cnn3c2)cn1 | 100% | 92% | 100% | 66% | 100% | 100% | 7% | 100% | 64% | 95% | 25% | 93% | 100% | 97% | 100% | 100% | 79% | 97% | 100% | 100% | Activity [21]: 100%; Activity [22]: 94%; Activity [23]: 6%; Activity [24]: 84%; Activity [25]: 100%
CC1(C)[C@H](Nc2c(C(N)=O)cnn3cc(-c4ccccc4)cc23)CC[C@]1(C)N | 82% | 100% | 100% | 82% | 68% | 97% | 0.3% | 87% | 83% | 98% | 21% | 96% | 99% | 90% | 100% | 100% | 79% | 83% | 83% | 95% | Activity [21]: 100%; Activity [22]: 100%; Activity [23]: 6.2%; Activity [24]: 100%; Activity [25]: 72%
